The values that follow come from patent publication US10975119B2, “Selective cysteine protease inhibitors and uses thereof” (Genesis Technologies Limited, priority 2011, dated 2021).

Each structure is given as a SMILES string. Read-outs that look alike come from different tables or passages of the source.

Holding throughout (type): biochemical
In one assay the target is T1, Caspase-1 (Homo sapiens, UniProt P29466).
T1 construct: mixing the compounds with the respective active caspases; purchased BioVision K151-100
T1 sequence (P29466 120-297 limits assumed): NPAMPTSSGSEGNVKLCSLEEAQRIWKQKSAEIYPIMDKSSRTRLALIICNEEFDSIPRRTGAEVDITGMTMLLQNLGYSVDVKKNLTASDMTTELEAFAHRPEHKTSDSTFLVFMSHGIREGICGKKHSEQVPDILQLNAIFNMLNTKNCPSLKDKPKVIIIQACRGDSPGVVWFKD
T1 sequence (P29466 317-404 limits assumed): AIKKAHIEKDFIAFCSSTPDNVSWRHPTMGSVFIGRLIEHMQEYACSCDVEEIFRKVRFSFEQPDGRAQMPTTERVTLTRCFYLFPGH
The assay is described as follows: Caspase-1 inhibitor screening assay (BioVision kit, YVAD-AFC). The following applies: read-out: IC50 Casp1. On the procedure: (§1) The efficacy of an array of compounds as an inhibitor of the activity of Caspases 1 through 10 were assessed by using the respective Caspase Inhibitor Drug Screening Kits (Caspase-1 Catalog #: K151-100, Caspase-2 Catalog #: K152-100, Caspase-3 Catalog #: K153-100, Caspase-4 Catalog #: K154-100, Caspase-5 Catalog #: K155-100, Caspase-6 Catalog #: K156-100, Caspase-7 Catalog #: K157-100, Caspase-8 Catalog #: K158-100, Caspase-9 Catalog #: K159-100, Caspase-10 Catalog #: K160-100, BioVision) following the instructions of the manufacturer. […] Active caspases cleaved their respective synthetic substrates to release free AFC, which was then quantified by fluorometry.
(§2) Briefly, the compounds were first tested at 2 concentrations (10 uM and 100 uM final) to determine if there is a hit. […] Each condition was tested in duplicates. […] For some samples, a smaller range of concentrations was tested depending on the % Inhibition results at 10 uM and 100 uM. Results were summarized in Tables 2, 3, and 4 herein after. Table 2 represents the IC50 values (uM) of the test compounds as inhibitors of the activity of the various caspases.
(§3) (*) RFU (no inhibitor control)—RFU (compound at a specific concentration)
(§4) RFU (no inhibitor control)

A further assay addresses T2, Caspase-3 (Homo sapiens, UniProt P42574).
T2 construct: mixing the compounds with the respective active caspases; purchased BioVision K153-100
T2 sequence (P42574 29-175 limits assumed): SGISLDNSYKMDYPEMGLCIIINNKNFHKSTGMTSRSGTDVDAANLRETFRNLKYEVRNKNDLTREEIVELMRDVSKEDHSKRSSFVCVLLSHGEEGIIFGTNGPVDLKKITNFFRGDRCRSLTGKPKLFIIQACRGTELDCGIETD
T2 sequence (P42574 176-277 limits assumed): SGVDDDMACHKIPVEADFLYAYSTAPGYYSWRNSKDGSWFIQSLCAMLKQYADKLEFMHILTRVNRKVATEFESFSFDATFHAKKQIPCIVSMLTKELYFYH
The assay is described as follows: Caspase-3 inhibitor screening assay (BioVision kit, DEVD-AFC). The settings on record: read-out: IC50 Casp3. On the procedure:
as §1, §2, §3, §4

The next assay concerns the target T3, Caspase-4 (Homo sapiens, UniProt P49662).
T3 construct: mixing the compounds with the respective active caspases; purchased BioVision K154-100
T3 sequence (P49662 81-270 limits assumed): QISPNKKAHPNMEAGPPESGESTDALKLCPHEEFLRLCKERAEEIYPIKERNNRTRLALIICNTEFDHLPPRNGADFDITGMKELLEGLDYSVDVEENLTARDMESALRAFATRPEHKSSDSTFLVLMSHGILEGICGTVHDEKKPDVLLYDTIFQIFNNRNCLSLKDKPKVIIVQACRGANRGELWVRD
T3 sequence (P49662 290-377 limits assumed): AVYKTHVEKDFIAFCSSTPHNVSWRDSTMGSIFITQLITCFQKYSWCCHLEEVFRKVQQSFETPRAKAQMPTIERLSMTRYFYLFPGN
The assay is described as follows: Caspase-4 inhibitor screening assay (BioVision kit, LEVD-AFC). The settings on record: read-out: IC50 Casp4. On the procedure: as §1, §2, §3, §4

For the next assay, the target named is T4, Caspase-5 (Homo sapiens, UniProt P51878).
T4 construct: mixing the compounds with the respective active caspases; purchased BioVision K155-100
T4 sequence (P51878 137-327 limits assumed): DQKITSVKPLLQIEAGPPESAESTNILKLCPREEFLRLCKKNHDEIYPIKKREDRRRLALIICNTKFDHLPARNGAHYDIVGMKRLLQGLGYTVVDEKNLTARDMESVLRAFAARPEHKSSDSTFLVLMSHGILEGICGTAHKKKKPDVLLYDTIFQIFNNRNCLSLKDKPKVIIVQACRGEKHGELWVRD
T4 sequence (P51878 347-434 limits assumed): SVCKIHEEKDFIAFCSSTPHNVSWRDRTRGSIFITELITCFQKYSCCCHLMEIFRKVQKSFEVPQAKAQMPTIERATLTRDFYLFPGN
Put plainly: Caspase-5 inhibitor screening assay (BioVision kit, WEHD-AFC). The following applies: read-out: IC50 Casp5. How it is done: as §1, §2, §3, §4

In another assay the target is T5, Caspase-6 (Homo sapiens, UniProt P55212).
T5 construct: mixing the compounds with the respective active caspases; purchased BioVision K156-100
T5 sequence (P55212 24-179 limits assumed): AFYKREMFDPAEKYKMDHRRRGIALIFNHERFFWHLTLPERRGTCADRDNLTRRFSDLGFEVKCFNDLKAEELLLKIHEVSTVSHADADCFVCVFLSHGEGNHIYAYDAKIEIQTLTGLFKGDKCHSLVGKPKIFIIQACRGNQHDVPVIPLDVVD
T5 sequence (P55212 194-293 limits assumed): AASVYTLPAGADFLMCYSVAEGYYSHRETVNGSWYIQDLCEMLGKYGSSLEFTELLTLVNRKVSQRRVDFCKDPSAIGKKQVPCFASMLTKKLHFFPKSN
Put plainly: Caspase-6 inhibitor screening assay (BioVision kit, VEID-AFC). On the procedure: as §1, §2, §3, §4

The target of another assay is T6, Caspase-7 (Homo sapiens, UniProt P55210).
T6 construct: mixing the compounds with the respective active caspases; purchased BioVision K157-100
T6 sequence (P55210 24-198 limits assumed): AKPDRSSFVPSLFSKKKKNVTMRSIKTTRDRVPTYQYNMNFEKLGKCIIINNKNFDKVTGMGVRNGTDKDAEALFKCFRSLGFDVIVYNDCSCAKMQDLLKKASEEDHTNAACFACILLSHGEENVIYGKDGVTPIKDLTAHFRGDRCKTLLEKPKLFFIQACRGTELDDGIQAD
T6 sequence (P55210 207-303 limits assumed): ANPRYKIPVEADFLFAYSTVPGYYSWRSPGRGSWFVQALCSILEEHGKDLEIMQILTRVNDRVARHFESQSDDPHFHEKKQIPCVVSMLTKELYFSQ
The assay is described as follows: Caspase-7 inhibitor screening assay (BioVision kit, DEVD-AFC). The settings on record: read-out: IC50 Casp7. How it is done: as §1, §2, §3, §4

The next assay has as its target T7, Caspase-10 (Homo sapiens, UniProt Q92851).
T7 construct: mixing the compounds with the respective active caspases; purchased BioVision K160-100
T7 sequence (Q92851 220-415 limits assumed): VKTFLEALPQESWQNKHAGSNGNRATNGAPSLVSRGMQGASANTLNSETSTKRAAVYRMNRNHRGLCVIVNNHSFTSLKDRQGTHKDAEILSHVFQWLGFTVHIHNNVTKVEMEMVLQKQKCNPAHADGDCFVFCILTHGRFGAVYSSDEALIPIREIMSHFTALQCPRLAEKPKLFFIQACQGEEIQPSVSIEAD
T7 sequence (Q92851 416-521 limits assumed): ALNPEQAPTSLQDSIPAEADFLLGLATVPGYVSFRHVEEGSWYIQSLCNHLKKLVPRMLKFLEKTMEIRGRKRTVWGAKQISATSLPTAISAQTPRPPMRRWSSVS
The assay is described as follows: Caspase-10 inhibitor screening assay (BioVision kit, AEVD-AFC). The following applies: read-out: IC50 Casp10. On the procedure: as §1, §2, §3, §4

For the next assay, the target named is T8, Caspase-8 (Homo sapiens, UniProt Q14790).
T8 construct: mixing the compounds with the respective active caspases; purchased BioVision K158-100
T8 sequence (Q14790 217-374 limits assumed): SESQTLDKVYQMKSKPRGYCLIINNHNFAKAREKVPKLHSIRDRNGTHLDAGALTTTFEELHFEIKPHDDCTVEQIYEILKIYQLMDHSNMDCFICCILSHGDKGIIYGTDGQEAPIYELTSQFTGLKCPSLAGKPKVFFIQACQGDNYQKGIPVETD
T8 sequence (Q14790 385-479 limits assumed): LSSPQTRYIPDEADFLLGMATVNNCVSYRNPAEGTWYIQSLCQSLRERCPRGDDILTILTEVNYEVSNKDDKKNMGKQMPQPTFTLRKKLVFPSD
Put plainly: Caspase-8 inhibitor screening assay (BioVision kit, IETD-AFC). The following applies: read-out: IC50 Casp8. How it is done:
as §1, §2, §3, §4

A further assay has as its target T9, Caspase-9 (Homo sapiens, UniProt P55211).
T9 construct: purchased BioVision K159-100
T9 sequence (P55211 1-315 limits assumed): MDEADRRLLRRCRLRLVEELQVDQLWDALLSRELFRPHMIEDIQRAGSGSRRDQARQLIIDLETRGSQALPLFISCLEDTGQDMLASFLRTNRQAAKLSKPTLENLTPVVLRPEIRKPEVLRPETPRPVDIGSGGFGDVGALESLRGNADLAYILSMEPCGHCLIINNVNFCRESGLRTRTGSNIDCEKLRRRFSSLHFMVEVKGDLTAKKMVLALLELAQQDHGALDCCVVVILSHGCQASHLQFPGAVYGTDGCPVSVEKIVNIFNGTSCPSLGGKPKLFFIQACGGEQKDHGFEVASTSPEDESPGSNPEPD
T9 sequence (P55211 331-416 limits assumed): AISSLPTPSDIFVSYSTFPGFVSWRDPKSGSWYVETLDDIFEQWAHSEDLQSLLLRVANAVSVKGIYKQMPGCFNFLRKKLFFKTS
Put plainly: Caspase-9 inhibitor screening assay (BioVision kit, LEHD-AFC). The following applies: read-out: IC50 Casp9. How it is done: as §1, §2, §3, §4

Usually IC50 stands for the concentration needed to halve the response being measured. Consider `CCOC(=O)/C(Cl)=C/[C@H](CC(=O)O)NC(=O)[C@H]1CCCN1C(=O)[C@H](NC(=O)[C@H](CC(=O)O)NC(=O)OCc1ccccc1)C(C)(C)C` [Compound 57, Z-Asp-t-Leu-Pro-Asp αchlorovinyl Ethyl Vinyl Ester], for which the half-maximal inhibitory concentration (IC50) is 7900 nM on Caspase-1; 1270 nM on Caspase-3; greater than 100000 nM at Caspase-4; 16000 nM at Caspase-5; greater than 100000 nM at Caspase-6 (read-out: IC50 Casp6); 150 nM on Caspase-7. Also, the IC50 at Caspase-10 is 50 nM.
Consider `CCOC(=O)/C(Cl)=C/[C@H](CC(=O)O)NC(=O)[C@H]1CCCN1C(=O)[C@@H](NC(=O)c1ccc(N)c(Cl)c1)C(C)(C)C` [Compound 117, 4-amino-3-chlorobenzene carbonyl-t-Leu-Pro-Asp αchlorovinyl Ethyl Vinyl Ester], for which the IC50 was 110 nM at Caspase-1; greater than 100000 nM on Caspase-3; 70 nM on Caspase-4; 900 nM at Caspase-5; greater than 100000 nM on Caspase-6 (read-out: IC50 Casp6); greater than 100000 nM on Caspase-7. Also, the IC50 on Caspase-8 was found to be 1400 nM.
In the case of `CCC(C)[C@H](NC(=O)[C@H](CCC(=O)O)NC(=O)[C@@H](NC(=O)OCc1ccccc1)C(C)C)C(=O)N[C@H](/C=C(\Cl)S(C)(=O)=O)CC(=O)O` (stereo partly drawn) [Compound 123, Z-Val-Glu-Ile-Asp-achlorovinyl methyl vinyl sulfone], the IC50 was 3880 nM at Caspase-1; 1340 nM at Caspase-3; 1800 nM on Caspase-4; 4200 nM on Caspase-5; 229 nM on Caspase-6 (read-out: inhibition (IC50) against Caspase-6); 530 nM at Caspase-8. The results for the half-maximal inhibitory concentration (IC50) at Caspase-9 and on Caspase-10 were 6400 nM and 190 nM, respectively.
